Data from patent publication US12247033B2, “Triazole-substituted imidazo[1,2-a]pyrimidines as cGAS inhibitors” (GlaxoSmithKline Intellectual Property Development Limited, priority 2022, dated 2025).
Converted amounts (≈) assume the structure as drawn. “And” between values parts separate entries of the source, which are not always exact repeats. Equal entries are not always repeated.

What was measured:
cGAS pathway = assay: Whole blood (hWB) cytokine release assay (96-well, Bacmam stimulation, plasma IP-10 by Meso-Scale Discovery plates); format: cell-based; settings: 6 h, Table 4, human whole blood from individual healthy donors; for IC50: Homo sapiens, read-out: hWB pXC50 (converted)
Experimental: The whole blood (hWB) cytokine release assay was performed as follows.
Human whole blood was collected from individual healthy donors into a 60 ml syringe containing sodium heparin (5 ml sodium heparin per syringe; Cat #309653, Becton-Dickinson, NJ, US). In a biosafety cabinet, 140 ul of the collected blood was transferred to each well of a 96-well flat bottom plate (Cat #167008, VWR, PA, US). The DMSO stock solution of small molecule cGAS inhibitor (10 mM stock solution) was diluted in PBS to prepare 10× solutions (3-fold dilutions) and 20 ul of the prepared 10× solutions was added to appropriate wells. Plates were shaken for 5 minutes at room temperature then incubated at 37° C. for 30 minutes. The stock solution of purified Bacmam was diluted with PBS+0.1% BSA to prepare a 4% (v/v) solution (10×). To activate the cGAS pathway, 20 uL of Bacmam was added to the blood, and the plates were shaken for 10 minutes at room temperature. PBS was added to achieve a final volume of 200 ul. Plates were then incubated at 37° C. for 6 hours.
Plates were removed from incubator and 100 uL/well PBS added. Plates were gently shaken for 10 minutes at room temperature and centrifuged (3000 rpm, 10 minutes) at room temperature. The plasma layer was removed and transferred to a separate 96-well plate and maintained at −80° C.
Plasma samples were measured for IP-10 levels using the IP-10 detection (U-plex or V-plex) plates (Cat #K151-UFK-4; Cat #K151-NVD-4; Meso-Scale Discovery, Inc.).

human CGAS (157-522) = human CGAS (157-522) (Homo sapiens, UniProt Q8N884); assay: biochemical;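 further: biochemical enzyme reaction, 2′3′-cGAMP product measured by RapidFire mass spectrometry (MRM) normalised to c-di-UMP internal standard, inhibition of product formation relative to high and low control wells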
CGAS = CGAS whole blood cytokine release assay (384-well, BacMam stimulation, IP-10 by cytometric bead array); format: cell-based; settings: Homo sapiens, 6 h; read-out: hWB pXC50 (converted)
Outline: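 Heparinised human donor whole blood mixed with serially diluted compound plus Null BacMam stimulus, incubated 6 h at 37° C, 5% CO2. Supernatant IP-10 quantified by cytometric bead array on flow cytometer (488 nm excitation, 585/40 nm emission); inhibition of IP-10 calculated.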

[1] = FaSSIF solubility (Fasted State Simulated Intestinal Fluid); format: physicochemical; settings: thermodynamic from solid, FaSSIF pH 6.5, 4 h equilibration at room temperature, dynamic range 1-1000 μg/mL
Experimental: 1 mL of FaSSIF buffer (3 mM sodium taurocholate, 0.75 mM lecithin in sodium phosphate buffer at pH 6.5) was added to manually weighed 1 mg of the solid compound in a 4 mL vial. […] The residual solid was removed by filtration. The supernatant solution was quantified by HPLC-UV using single point calibration of a known concentration of the compound in DMSO. The dynamic range of the assay was 1-1000 μg/mL.

human CGAS (157-522), sequence (Q8N884 157-522): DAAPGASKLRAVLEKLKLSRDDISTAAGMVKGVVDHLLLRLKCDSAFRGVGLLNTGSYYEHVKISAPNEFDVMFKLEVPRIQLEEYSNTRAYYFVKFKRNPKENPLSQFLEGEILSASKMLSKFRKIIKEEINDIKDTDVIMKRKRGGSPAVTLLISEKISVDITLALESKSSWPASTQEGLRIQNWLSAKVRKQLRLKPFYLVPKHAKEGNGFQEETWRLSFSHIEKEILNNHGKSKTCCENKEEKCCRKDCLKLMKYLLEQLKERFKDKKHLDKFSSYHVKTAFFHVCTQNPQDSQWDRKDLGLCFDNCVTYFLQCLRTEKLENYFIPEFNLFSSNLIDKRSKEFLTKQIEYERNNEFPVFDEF

| SMILES | IC50 (cGAS pathway) [nM] | hWB pXC50 (cGAS pathway) | IC50 (human CGAS (157-522)) [nM] | IC50 (CGAS) [nM] | solubility at 4 h [1] [µg/mL] |
| --- | --- | --- | --- | --- | --- |
| FC(F)(F)c1nnc(-c2[nH]c3c(Cl)c(Cl)ccc3c2-c2cn[nH]c2)[nH]1 [WO 2022/137085 Example 11] | > 31600 | 4.6 | – | – | – |
| Fc1cnc2nc(-c3nc(C(F)(F)F)n[nH]3)c(-c3cnc[nH]3)n2c1 [Example 2, 5-[6-fluoro-3-(1H-imidazol-5-yl)imidazo[1,2-a]pyrimidin-2-yl]-3-(trifluoromethyl)-1H-1,2,4-triazole] | 251 | – | 3.98 | 316 | 5 (≈ 14.8 µM) |
| Cn1c(-c2nnc(C(F)(F)F)[nH]2)c(-n2ccnc2)c2ccc(Cl)c(Cl)c21 [WO 2022/137085 Example 109] | > 31600 | <4.5, <4.5 | – | – | – |
| COc1nc2c(-n3ccnc3)c(-c3nnc(C(F)(F)F)[nH]3)[nH]c2cc1Cl | – | < 4.5 and 5.0 | 63.1 | – | – |
